# According to ChEMBL document CHEMBL6109142 (J Med Chem, 2025):
# Activity calls are given as the source filed them. The calls are words filed in the database; no cut-off is given here.
# Test system: SARS-CoV-2
# Assay: Antiviral activity against SARS-CoV-2 pseudotyped with delta spike protein infected in HEK293T cells harbouring hACE2 assessed as decrease in virus-like particle cellular entry at 10 uM preincubated with cells for 3 hrs followed by viral infection and measured after 72 hrs by ONE-Glo-Ex luciferase assay
# Type: functional, organism-based
# Conditions: Severe acute respiratory syndrome coronavirus 2, time 75.0 hrs
row,SMILES,Activity
1,N=C(N)NCCC[C@H](NC(=O)[C@H](Cc1ccccc1)NC(=O)[C@H](CCC(N)=O)NC(=O)OCc1ccccc1)C(=O)c1nccs1,inactive
2,CS(=O)(=O)N[C@@H](CCC(N)=O)C(=O)N[C@@H](Cc1ccccc1)C(=O)N[C@@H](CCCNC(=N)N)C(=O)c1nc2ccccc2s1,inactive
3,CN(C)C(=O)COC(=O)Cc1ccc(OC(=O)c2ccc(NC(=N)N)cc2)cc1 [CAMOSTAT],inactive
4,CCOC(=O)[C@H]1O[C@@H]1C(=O)N[C@@H](CC(C)C)C(=O)NCCC(C)C,Active
